Test results taken from ChEMBL document CHEMBL5338773, “First-in-Class Selective Inhibitors of the Lysine Acetyltransferase KAT8” (J Med Chem, 2023).
The source made the active and inactive calls. The rule behind the calls is not given here.

Tests used:
[1] = target: Histone acetyltransferase KAT6A (Homo sapiens) (UniProt Q92794); experiment: Inhibition of recombinant human KAT6A (488 to 778 residues) using histone H3 peptide and [3H]-acetyl-coA as substrates at 200 uM incubated for 1 hrs by liquid scintillation counter analysis
[2] = target: Histone acetyltransferase KAT7 (Homo sapiens) (UniProt O95251); experiment: Inhibition of recombinant human full length KAT7 using histone H3 peptide and [3H]-acetyl-coA as substrates at 200 uM incubated for 1 hrs by liquid scintillation counter analysis
[3] = target: T1, Histone acetyltransferase KAT8 (Homo sapiens) (UniProt Q9H7Z6); experiment: Binding affinity to KAT8 in human HT-29 cells at 59 degreeC at 100 nM incubated for 4 hrs by […] analysis; assay type: cell-based
T1 sequence (whole entry): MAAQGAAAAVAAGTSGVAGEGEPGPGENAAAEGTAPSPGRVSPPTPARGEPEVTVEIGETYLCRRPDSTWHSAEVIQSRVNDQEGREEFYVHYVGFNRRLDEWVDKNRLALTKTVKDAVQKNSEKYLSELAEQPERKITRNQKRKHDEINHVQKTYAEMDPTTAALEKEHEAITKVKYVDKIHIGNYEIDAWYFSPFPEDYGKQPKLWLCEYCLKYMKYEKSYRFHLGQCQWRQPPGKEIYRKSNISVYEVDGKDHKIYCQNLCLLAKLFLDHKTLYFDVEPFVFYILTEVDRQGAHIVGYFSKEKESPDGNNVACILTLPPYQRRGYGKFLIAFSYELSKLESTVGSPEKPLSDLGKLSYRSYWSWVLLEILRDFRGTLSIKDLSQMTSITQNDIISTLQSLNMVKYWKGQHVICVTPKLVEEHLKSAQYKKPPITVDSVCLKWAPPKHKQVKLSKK

HCT-116 [4] = experiment: Antiproliferative activity against human HCT-116 cells assessed as cell proliferation inhibition at 100 uM incubated for 72 hrs by MTT assay; assay type: functional; parameters: scale not given: the % may be the effect or the level left
[5] = Cytotoxicity against human primary lung fibroblast assessed as inhibition of cell viability at 25 to 200 uM incubated for 72 hrs by MTT assay; assay type: toxicity, cell-based; conditions: dose 25-200 µM
HCT-116 [6] = experiment: Induction of cell cycle arrest in human HCT-116 cells assessed as increase in number of cells at sub-G1 phase with DNA hypodiploid at 100 uM incubated for 72 hrs by PI-staining based flow cytometry (Rvb=2%); assay type: functional
HeLa [7] = experiment: Induction of cell cycle arrest in human HeLa cells assessed as increase in number of cells at sub-G1 phase with DNA hypodiploid at 100 uM incubated for 72 hrs by PI-staining based flow cytometry (Rvb=2%); assay type: functional
HCT-116 [8] = experiment: Induction of apoptosis in human HCT-116 cells assessed as slight increase in apoptotic cells at 50 to 100 uM incubated for 72 hrs by Annexin V-FITC staining based flow cytometry; assay type: functional, cell-based; conditions: dose 50-100 µM
HCT-116 [9] = experiment: Downregulation of UCP2 mRNA expression in human HCT-116 cells at 100 uM incubated for 48 hrs by qRT-PCR analysis; assay type: functional, cell-based
[10] = target: T1, Histone acetyltransferase KAT8 (Homo sapiens); experiment: Inhibition of human KAT8 in human HT-29 cells assessed as decrease in histone H4K16 acetylation level by measuring fluorescence intensity in nucleus at 50 uM incubated for 24 hrs by DAPI staining based immunofluorescence analysis; assay type: cell-based
HCT-116 [11] = experiment: Downregulation of HOXA9A mRNA expression in human HCT-116 cells at 100 uM incubated for 48 hrs by qRT-PCR analysis; assay type: functional, cell-based
HeLa [12] = experiment: Induction of autophagy in human HeLa cells stably expressing EGFP-LC3 assessed as change in LC3-II/LC3-I ratio at 10 to 100 uM incubated for 48 hrs by Western blot analysis; assay type: functional, cell-based; conditions: dose 10-100 µM
HeLa [13] = experiment: Induction of autophagy in human HeLa cells stably expressing EGFP-LC3 assessed as increase in p62 expression level at 10 to 100 uM incubated for 48 hrs by Western blot analysis; assay type: functional, cell-based; conditions: dose 10-100 µM

Sequence of Histone acetyltransferase KAT7 (Homo sapiens) (O95251 whole entry): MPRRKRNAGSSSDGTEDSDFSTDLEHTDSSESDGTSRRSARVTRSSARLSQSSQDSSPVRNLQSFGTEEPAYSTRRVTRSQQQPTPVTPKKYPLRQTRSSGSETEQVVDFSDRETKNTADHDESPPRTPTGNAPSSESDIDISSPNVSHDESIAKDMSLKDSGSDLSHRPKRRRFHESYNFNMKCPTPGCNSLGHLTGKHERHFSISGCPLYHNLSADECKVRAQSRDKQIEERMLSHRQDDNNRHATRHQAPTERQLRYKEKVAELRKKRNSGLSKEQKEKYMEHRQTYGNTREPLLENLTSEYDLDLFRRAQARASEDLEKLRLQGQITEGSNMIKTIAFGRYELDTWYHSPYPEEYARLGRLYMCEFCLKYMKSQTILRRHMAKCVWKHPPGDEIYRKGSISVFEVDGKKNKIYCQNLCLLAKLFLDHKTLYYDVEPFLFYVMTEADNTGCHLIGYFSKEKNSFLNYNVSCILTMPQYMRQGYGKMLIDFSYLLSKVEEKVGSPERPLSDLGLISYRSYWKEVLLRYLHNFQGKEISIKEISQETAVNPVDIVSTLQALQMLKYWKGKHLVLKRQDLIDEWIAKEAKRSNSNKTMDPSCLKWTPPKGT
Sequence of Histone acetyltransferase KAT6A (Homo sapiens) (Q92794 whole entry, looked up, the tested form may be a part): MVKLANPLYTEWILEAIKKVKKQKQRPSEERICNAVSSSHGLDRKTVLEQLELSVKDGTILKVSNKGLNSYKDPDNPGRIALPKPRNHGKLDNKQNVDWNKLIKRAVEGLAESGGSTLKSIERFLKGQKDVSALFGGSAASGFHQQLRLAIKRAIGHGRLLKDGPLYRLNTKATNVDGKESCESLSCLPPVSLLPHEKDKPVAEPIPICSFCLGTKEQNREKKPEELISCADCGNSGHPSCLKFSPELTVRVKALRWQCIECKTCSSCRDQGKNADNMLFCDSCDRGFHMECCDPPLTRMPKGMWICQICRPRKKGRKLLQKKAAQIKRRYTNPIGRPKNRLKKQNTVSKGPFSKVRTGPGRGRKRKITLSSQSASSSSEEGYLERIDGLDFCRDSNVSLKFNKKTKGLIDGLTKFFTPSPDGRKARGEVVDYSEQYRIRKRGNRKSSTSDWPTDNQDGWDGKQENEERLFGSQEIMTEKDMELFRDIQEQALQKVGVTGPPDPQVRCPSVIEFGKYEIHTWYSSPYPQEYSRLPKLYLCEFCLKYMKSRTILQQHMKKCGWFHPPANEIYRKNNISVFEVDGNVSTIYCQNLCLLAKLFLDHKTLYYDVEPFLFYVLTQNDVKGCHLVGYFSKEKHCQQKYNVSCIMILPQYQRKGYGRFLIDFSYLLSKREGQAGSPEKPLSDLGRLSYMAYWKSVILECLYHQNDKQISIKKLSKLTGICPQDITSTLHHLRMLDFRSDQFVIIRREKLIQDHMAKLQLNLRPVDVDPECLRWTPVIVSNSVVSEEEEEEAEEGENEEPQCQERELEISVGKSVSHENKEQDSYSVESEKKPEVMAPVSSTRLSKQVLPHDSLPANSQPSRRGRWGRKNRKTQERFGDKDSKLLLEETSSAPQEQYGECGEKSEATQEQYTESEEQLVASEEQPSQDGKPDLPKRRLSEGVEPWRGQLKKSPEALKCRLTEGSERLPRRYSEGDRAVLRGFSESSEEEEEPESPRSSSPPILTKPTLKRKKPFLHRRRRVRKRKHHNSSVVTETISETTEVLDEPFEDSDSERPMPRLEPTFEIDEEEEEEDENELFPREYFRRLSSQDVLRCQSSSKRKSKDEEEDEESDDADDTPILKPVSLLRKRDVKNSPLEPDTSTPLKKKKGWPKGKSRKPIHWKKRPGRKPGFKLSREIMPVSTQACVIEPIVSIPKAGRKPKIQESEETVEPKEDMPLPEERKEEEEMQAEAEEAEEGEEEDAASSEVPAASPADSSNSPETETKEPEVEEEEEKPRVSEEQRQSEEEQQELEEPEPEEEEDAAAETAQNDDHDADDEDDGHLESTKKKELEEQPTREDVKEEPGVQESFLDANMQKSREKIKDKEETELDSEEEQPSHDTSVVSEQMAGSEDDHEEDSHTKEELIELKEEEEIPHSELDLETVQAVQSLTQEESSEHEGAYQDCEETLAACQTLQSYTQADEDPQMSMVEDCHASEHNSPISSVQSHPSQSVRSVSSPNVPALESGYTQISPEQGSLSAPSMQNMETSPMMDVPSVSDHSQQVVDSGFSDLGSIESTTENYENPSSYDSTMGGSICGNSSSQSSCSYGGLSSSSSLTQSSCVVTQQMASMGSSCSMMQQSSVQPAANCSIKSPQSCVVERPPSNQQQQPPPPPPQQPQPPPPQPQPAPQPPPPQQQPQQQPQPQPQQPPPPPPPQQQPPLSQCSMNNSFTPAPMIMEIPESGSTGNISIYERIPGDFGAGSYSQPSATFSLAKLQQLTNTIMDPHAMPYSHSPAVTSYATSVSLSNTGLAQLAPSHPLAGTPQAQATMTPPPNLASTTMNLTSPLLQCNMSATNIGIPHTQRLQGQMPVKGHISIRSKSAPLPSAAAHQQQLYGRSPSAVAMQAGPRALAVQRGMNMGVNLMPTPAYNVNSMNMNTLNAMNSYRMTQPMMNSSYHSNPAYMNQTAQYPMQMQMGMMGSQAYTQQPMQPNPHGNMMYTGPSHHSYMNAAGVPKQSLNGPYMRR

Row | SMILES | inhibition [1] | inhibition [2] | Activity [3] | Activity (HCT-116 [4]) | Activity [5] | Activity (HCT-116 [6]) | Activity (HeLa [7]) | Activity (HCT-116 [8]) | Activity (HCT-116 [9]) | inhibition [10] | Activity (HCT-116 [11]) | Activity (HeLa [12]) | Activity (HeLa [13])
1 | CC1=NN(c2ccc(C(=O)O)cc2)C(=O)/C1=C\c1ccc[nH]1 | inactive | inactive | Active | >80% | Non-Toxic | 6% | 5% | Active | Active | – | – | – | –
2 | O=C(O)c1ccc(N2N=C(c3ccccc3)/C(=C/c3ccc[nH]3)C2=O)cc1 | – | – | Active | – | Non-Toxic | 13% | 4% | Active | Active | > 50% | Active | Active | Active
